Counter-ions that a name gives are not always drawn.
Biological target: T1, Adrenergic β2 (Homo sapiens, UniProt P07550)
T1 construct: Adherent H292 cells were removed from tissue culture flasks; endogenous in cells; host or cells: H292 cells
Test: Adrenergic β2 mediated cAMP production in H292 cells (AlphaScreen)
Format: cell-based
Procedure: Adrenergic β2 mediated cAMP production
H292 cells were grown in 225 cm2 flasks incubator at 37° C., 5% CO2 in RPMI medium containing, 10% (v/v) FBS (foetal bovine serum) and 2 mM L-glutamine.
Adherent H292 cells were removed from tissue culture flasks by treatment with Accutase™ cell detachment solution for 15 minutes. Flasks were incubated for 15 minutes in a humidified incubator at 37° C., 5% CO2. Detached cells were re-suspended in RPMI media (containing 10% (v/v) FBS and 2 mM L-glutamine) at 0.05×10^6 cells per mL. 5000 cells in 100 μL were added to each well of a tissue-culture-treated 96-well plate and the cells incubated overnight in a humidified incubator at 37° C., 5% CO2. The culture media was removed and cells were washed twice with 100 μL assay buffer and replaced with 50 μL assay buffer (HBSS solution containing 10 mM HEPES pH7.4 and 5 mM glucose). […]
The concentration of cAMP (cyclic adenosine monophosphate) in the cell lysate was determined using AlphaScreen™ methodology. […] The AlphaScreen™ signal was measured using an EnVision spectrophotometer (Perkin-Elmer Inc.) with the recommended manufacturer's settings. cAMP concentrations were determined by reference to a calibration curve determined in the same experiment using standard cAMP concentrations. […] Intrinsic Activity was expressed as a fraction relative to the maximum activity determined for formoterol in each experiment. […]

T1 sequence (P07550 whole entry): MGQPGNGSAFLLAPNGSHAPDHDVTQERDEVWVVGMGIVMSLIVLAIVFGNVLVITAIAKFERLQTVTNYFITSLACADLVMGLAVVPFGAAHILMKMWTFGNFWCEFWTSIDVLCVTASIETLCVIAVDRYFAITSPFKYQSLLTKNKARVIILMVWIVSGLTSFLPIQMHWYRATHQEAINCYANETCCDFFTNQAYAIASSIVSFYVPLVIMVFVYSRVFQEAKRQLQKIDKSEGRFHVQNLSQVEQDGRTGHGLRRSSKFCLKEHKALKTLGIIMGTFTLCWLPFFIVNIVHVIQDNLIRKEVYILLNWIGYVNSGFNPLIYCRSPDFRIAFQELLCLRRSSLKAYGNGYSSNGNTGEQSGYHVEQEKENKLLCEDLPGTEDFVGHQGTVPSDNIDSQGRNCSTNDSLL

`CCN(CC)CCN(CCNCCc1ccc(O)c2[nH]c(=O)sc12)C(=O)CCOCCc1cccc2ccccc12` [Compound A, N-[2-(Diethylamino)ethyl]-N-(2-{[2-(4-hydroxy-2-oxo-2,3-dihydro-1,3-benzothiazol-7-yl)ethyl]amino}ethyl)-3-[2-(1-naphthyl)ethoxy]propanamide dihydrobromide] was tested, and the EC50 (H292 cells, cAMP, 300 μM rolipram, read-out: β2 pEC50 (converted)) was 6.31 nM and the “β2 Int Act” value (Intrinsic Activity as fraction relative to maximum activity of formoterol) was 0.8.

— US20080242649A1, “New Combination 665” (priority 2007, published 2008)
